Several values for one entry are separate records, joined by “and”; a condition that tells them apart may be missing. Equal values may be shown once. Read-outs that look alike come from different tables or passages of the source.
System: Influenza A virus neuraminidase inhibitor-resistant strain (ZX-1109)
Type: cell-based
Details: for average inactivation efficiency against virus: ZX1109 virus, three experiments; for residual virus titer of EGCG+virus group (Karber method) / inactivation efficiency against the virus: ZX-1109 virus; for inactivation efficiency against the virus: single experiment

Which “CPE test (virus replication in the cell wells)” value (1 mM EGCG + ZX-1109 virus, 1 minute, third experiment, dilution factor 10^6, wells 1-10) does the source give for `O=C(O[C@@H]1Cc2c(O)cc(O)cc2O[C@@H]1c1cc(O)c(O)c(O)c1)c1cc(O)c(O)c(O)c1` [EGCG, Epigallocatechin gallate] here?
Its value is “− and +”.

What about the “CPE test (virus replication in the cell wells)” value (1 mM EGCG + ZX-1109 virus, 1 minute, third experiment, dilution factor 10^7, wells 1-10) of the same molecule?
Its value is “−”.

And the “CPE test (virus replication in the cell wells)” value (1 mM EGCG + ZX-1109 virus, 1 minute, third experiment, dilution factor 10^8, wells 1-10)?
The value was “−”.

What about the “CPE test (virus replication in the cell wells)” value (1 mM EGCG + ZX-1109 virus, 5 minute, first experiment, dilution factor 10^2, wells 1-10) of the same molecule?
Its value is “+”.

And the “CPE test (virus replication in the cell wells)” value (1 mM EGCG + ZX-1109 virus, 5 minute, first experiment, dilution factor 10^3, wells 1-10)?
The value was “+”.

And the “CPE test (virus replication in the cell wells)” value (1 mM EGCG + ZX-1109 virus, 5 minute, first experiment, dilution factor 10^4, wells 1-10)?
Its value is “+”.

What about the “CPE test (virus replication in the cell wells)” value (1 mM EGCG + ZX-1109 virus, 5 minute, first experiment, dilution factor 10^5, wells 1-10) of the same molecule?
The value was “+ and −”.

What about the “CPE test (virus replication in the cell wells)” value (1 mM EGCG + ZX-1109 virus, 5 minute, first experiment, dilution factor 10^6, wells 1-10) of the same molecule?
The value was “− and +”.

And the “CPE test (virus replication in the cell wells)” value (1 mM EGCG + ZX-1109 virus, 5 minute, first experiment, dilution factor 10^7, wells 1-10)?
Its value is “− and +”.

What about the “CPE test (virus replication in the cell wells)” value (1 mM EGCG + ZX-1109 virus, 5 minute, first experiment, dilution factor 10^8, wells 1-10) of the same molecule?
Its value is “+ and −”.

And the “CPE test (virus replication in the cell wells)” value (1 mM EGCG + ZX-1109 virus, 5 minute, second experiment, dilution factor 10^2, wells 1-10)?
Its value is “+”.

What about the “CPE test (virus replication in the cell wells)” value (1 mM EGCG + ZX-1109 virus, 5 minute, second experiment, dilution factor 10^3, wells 1-10) of the same molecule?
Its value is “+”.

What about the “CPE test (virus replication in the cell wells)” value (1 mM EGCG + ZX-1109 virus, 5 minute, second experiment, dilution factor 10^4, wells 1-10) of the same molecule?
Its value is “+”.

What about the “CPE test (virus replication in the cell wells)” value (1 mM EGCG + ZX-1109 virus, 5 minute, second experiment, dilution factor 10^5, wells 1-10) of the same molecule?
The value was “+ and −”.

What about the “CPE test (virus replication in the cell wells)” value (1 mM EGCG + ZX-1109 virus, 5 minute, second experiment, dilution factor 10^6, wells 1-10) of the same molecule?
The value was “− and +”.

And the “CPE test (virus replication in the cell wells)” value (1 mM EGCG + ZX-1109 virus, 5 minute, second experiment, dilution factor 10^7, wells 1-10)?
The value was “− and +”.

What about the “CPE test (virus replication in the cell wells)” value (1 mM EGCG + ZX-1109 virus, 5 minute, second experiment, dilution factor 10^8, wells 1-10) of the same molecule?
The value was “− and +”.

And the “CPE test per cell well” value (1 mM EGCG + ZX-1109 virus, 5 minute, third experiment, dilution factor 10^2, wells 1-10)?
The value was “+”.

And the “CPE test per cell well” value (1 mM EGCG + ZX-1109 virus, 5 minute, third experiment, dilution factor 10^3, wells 1-10)?
The value was “+”.

What about the “CPE test per cell well” value (1 mM EGCG + ZX-1109 virus, 5 minute, third experiment, dilution factor 10^4, wells 1-10) of the same molecule?
Its value is “+”.

And the “CPE test per cell well” value (1 mM EGCG + ZX-1109 virus, 5 minute, third experiment, dilution factor 10^5, wells 1-10)?
The value was “− and +”.

And the “CPE test per cell well” value (1 mM EGCG + ZX-1109 virus, 5 minute, third experiment, dilution factor 10^6, wells 1-10)?
Its value is “+ and −”.

What about the “CPE test per cell well” value (1 mM EGCG + ZX-1109 virus, 5 minute, third experiment, dilution factor 10^7, wells 1-10) of the same molecule?
The value was “− and +”.

And the “CPE test per cell well” value (1 mM EGCG + ZX-1109 virus, 5 minute, third experiment, dilution factor 10^8, wells 1-10)?
Its value is “+ and −”.

And the “average inactivation efficiency against virus” value (“average inactivation efficiency” below) (1 mM EGCG, 1 minute)?
Its value is 89.97%.

And the “average inactivation efficiency” value (1 mM EGCG, 5 minutes)?
The value was 97.59%.

And the “residual virus titer of EGCG+virus group (Karber method)” value (1 mM EGCG, 1 minute)?
The value was 10^5 TCID50/50 μL.

What about the “inactivation efficiency against the virus” value (1 mM EGCG, 1 minute) of the same molecule?
The value was 93.69% and 92.06% and 84.15%.

And the “residual virus titer of EGCG+virus group (Karber method)” value (1 mM EGCG, 5 minutes)?
The value was 10^6 TCID50/50 μL.

And the “inactivation efficiency against the virus” value (1 mM EGCG, 5 minutes)?
Its value is 96.02% and 98.74% and 98.00%.

And the “CPE test per cell well” value (5 mM EGCG + ZX1109 virus, 1 minute, second experiment, dilution factor 10^3, wells 1-10)?
Its value is “+”.

And the “CPE test per cell well” value (5 mM EGCG + ZX1109 virus, 1 minute, second experiment, dilution factor 10^4, wells 1-10)?
Its value is “+ and −”.

What about the “CPE test per cell well” value (5 mM EGCG + ZX1109 virus, 1 minute, second experiment, dilution factor 10^5, wells 1-10) of the same molecule?
The value was “− and +”.

What about the “CPE test per cell well” value (5 mM EGCG + ZX1109 virus, 1 minute, second experiment, dilution factor 10^6, wells 1-10) of the same molecule?
Its value is “−”.

And the “CPE test per cell well” value (5 mM EGCG + ZX1109 virus, 1 minute, second experiment, dilution factor 10^7, wells 1-10)?
Its value is “−”.

What about the “CPE test per cell well” value (5 mM EGCG + ZX1109 virus, 1 minute, second experiment, dilution factor 10^8, wells 1-10) of the same molecule?
Its value is “−”.

What about the “CPE test per cell well” value (5 mM EGCG + ZX-1109 virus, 1 minute, first experiment, dilution factor 10^2, wells 1-10) of the same molecule?
The value was “+”.

And the “CPE test per cell well” value (5 mM EGCG + ZX-1109 virus, 1 minute, first experiment, dilution factor 10^3, wells 1-10)?
The value was “+”.

And the “CPE test per cell well” value (5 mM EGCG + ZX-1109 virus, 1 minute, first experiment, dilution factor 10^4, wells 1-10)?
The value was “+ and −”.

What about the “CPE test per cell well” value (5 mM EGCG + ZX-1109 virus, 1 minute, first experiment, dilution factor 10^5, wells 1-10) of the same molecule?
The value was “+ and −”.

What about the “CPE test per cell well” value (5 mM EGCG + ZX-1109 virus, 1 minute, first experiment, dilution factor 10^6, wells 1-10) of the same molecule?
The value was “−”.

And the “CPE test per cell well” value (5 mM EGCG + ZX-1109 virus, 1 minute, first experiment, dilution factor 10^7, wells 1-10)?
Its value is “−”.

What about the “CPE test per cell well” value (5 mM EGCG + ZX-1109 virus, 1 minute, first experiment, dilution factor 10^8, wells 1-10) of the same molecule?
The value was “−”.

What about the “CPE test (virus replication in the cell wells)” value (5 mM EGCG + ZX-1109 virus, 1 minute, third experiment, dilution factor 10^2, wells 1-10) of the same molecule?
Its value is “+”.

And the “CPE test (virus replication in the cell wells)” value (5 mM EGCG + ZX-1109 virus, 1 minute, third experiment, dilution factor 10^3, wells 1-10)?
The value was “+”.

What about the “CPE test (virus replication in the cell wells)” value (5 mM EGCG + ZX-1109 virus, 1 minute, third experiment, dilution factor 10^4, wells 1-10) of the same molecule?
Its value is “+ and −”.

What about the “CPE test (virus replication in the cell wells)” value (5 mM EGCG + ZX-1109 virus, 1 minute, third experiment, dilution factor 10^5, wells 1-10) of the same molecule?
The value was “−”.

What about the “CPE test (virus replication in the cell wells)” value (5 mM EGCG + ZX-1109 virus, 1 minute, third experiment, dilution factor 10^6, wells 1-10) of the same molecule?
Its value is “−”.

And the “CPE test (virus replication in the cell wells)” value (5 mM EGCG + ZX-1109 virus, 1 minute, third experiment, dilution factor 10^7, wells 1-10)?
Its value is “−”.

And the “CPE test (virus replication in the cell wells)” value (5 mM EGCG + ZX-1109 virus, 1 minute, third experiment, dilution factor 10^8, wells 1-10)?
The value was “−”.

What about the “CPE test (virus replication in the cell wells)” value (5 mM EGCG + ZX-1109 virus, 5 minute, first experiment, dilution factor 10^3, wells 1-10) of the same molecule?
Its value is “+”.

And the “CPE test (virus replication in the cell wells)” value (5 mM EGCG + ZX-1109 virus, 5 minute, first experiment, dilution factor 10^4, wells 1-10)?
Its value is “+ and −”.

And the “CPE test (virus replication in the cell wells)” value (5 mM EGCG + ZX-1109 virus, 5 minute, first experiment, dilution factor 10^5, wells 1-10)?
Its value is “− and +”.

And the “CPE test (virus replication in the cell wells)” value (5 mM EGCG + ZX-1109 virus, 5 minute, first experiment, dilution factor 10^6, wells 1-10)?
The value was “− and +”.

And the “CPE test (virus replication in the cell wells)” value (5 mM EGCG + ZX-1109 virus, 5 minute, first experiment, dilution factor 10^7, wells 1-10)?
The value was “− and +”.

And the “CPE test (virus replication in the cell wells)” value (5 mM EGCG + ZX-1109 virus, 5 minute, first experiment, dilution factor 10^8, wells 1-10)?
The value was “−”.

And the “CPE test (virus replication in the cell wells)” value (5 mM EGCG + ZX-1109 virus, 5 minute, second experiment, dilution factor 10^3, wells 1-10)?
Its value is “+”.

And the “CPE test (virus replication in the cell wells)” value (5 mM EGCG + ZX-1109 virus, 5 minute, second experiment, dilution factor 10^4, wells 1-10)?
Its value is “− and +”.

What about the “CPE test (virus replication in the cell wells)” value (5 mM EGCG + ZX-1109 virus, 5 minute, second experiment, dilution factor 10^5, wells 1-10) of the same molecule?
The value was “− and +”.

And the “CPE test (virus replication in the cell wells)” value (5 mM EGCG + ZX-1109 virus, 5 minute, second experiment, dilution factor 10^6, wells 1-10)?
Its value is “−”.

And the “CPE test (virus replication in the cell wells)” value (5 mM EGCG + ZX-1109 virus, 5 minute, second experiment, dilution factor 10^7, wells 1-10)?
Its value is “−”.

And the “CPE test (virus replication in the cell wells)” value (5 mM EGCG + ZX-1109 virus, 5 minute, second experiment, dilution factor 10^8, wells 1-10)?
The value was “−”.

What about the “CPE test per cell well” value (5 mM EGCG + ZX-1109 virus, 5 minute, third experiment, dilution factor 10^3, wells 1-10) of the same molecule?
Its value is “+”.

And the “CPE test per cell well” value (5 mM EGCG + ZX-1109 virus, 5 minute, third experiment, dilution factor 10^4, wells 1-10)?
The value was “− and +”.

What about the “CPE test per cell well” value (5 mM EGCG + ZX-1109 virus, 5 minute, third experiment, dilution factor 10^5, wells 1-10) of the same molecule?
Its value is “−”.

And the “CPE test per cell well” value (5 mM EGCG + ZX-1109 virus, 5 minute, third experiment, dilution factor 10^6, wells 1-10)?
The value was “−”.

And the “CPE test per cell well” value (5 mM EGCG + ZX-1109 virus, 5 minute, third experiment, dilution factor 10^7, wells 1-10)?
Its value is “−”.

And the “CPE test per cell well” value (5 mM EGCG + ZX-1109 virus, 5 minute, third experiment, dilution factor 10^8, wells 1-10)?
The value was “−”.

What about the “average inactivation efficiency” value (5 mM EGCG, 1 minute) of the same molecule?
Its value is 93.73%.

What about the “average inactivation efficiency” value (5 mM EGCG, 5 minutes) of the same molecule?
The value was 99.86%.

What about the “inactivation efficiency against the virus” value (5 mM EGCG, 1 minute) of the same molecule?
Its value is 90.00% and 93.69% and 97.49%.

And the “inactivation efficiency against the virus” value (5 mM EGCG, 5 minutes)?
The value was 99.60% and 99.99%.
